Read-outs that look alike come from different tables or passages of the source.
What was measured:
Type in all cases: in vitro ADME
[1] = target: T1, UGT2B7 (Homo sapiens, UniProt P16662); assay: UGT inhibition in human liver microsomes, zidovudine 5′-glucuronidation (AZTG); conditions: pH 7.4, probe zidovudine (200 μM)
T1 construct: The typical incubation mixture contained human liver microsomes (0.5 mg/mL) along with SKN (10 μM); tissue BD Gentest; host or cells: human liver microsomes
T1 sequence (P16662 24-529): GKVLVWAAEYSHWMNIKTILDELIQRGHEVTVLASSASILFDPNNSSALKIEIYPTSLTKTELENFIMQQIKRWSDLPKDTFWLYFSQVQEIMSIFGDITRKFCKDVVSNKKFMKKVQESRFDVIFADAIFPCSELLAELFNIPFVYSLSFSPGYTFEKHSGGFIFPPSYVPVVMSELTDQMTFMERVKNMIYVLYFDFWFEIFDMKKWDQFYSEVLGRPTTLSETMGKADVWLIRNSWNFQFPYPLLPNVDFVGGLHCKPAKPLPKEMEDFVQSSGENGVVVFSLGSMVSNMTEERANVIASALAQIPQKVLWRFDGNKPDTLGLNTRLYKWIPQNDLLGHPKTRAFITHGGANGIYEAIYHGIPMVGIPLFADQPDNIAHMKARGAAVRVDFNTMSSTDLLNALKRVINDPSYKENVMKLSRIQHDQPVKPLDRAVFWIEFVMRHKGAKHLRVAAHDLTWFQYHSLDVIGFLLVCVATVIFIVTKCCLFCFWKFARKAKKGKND
Experimental: (§1) The formation of a glucuronide conjugate from an isozyme-specific substrate (200 μM, Table 5) was examined to determine UGT activity levels in human liver microsomes. The typical incubation mixture contained human liver microsomes (0.5 mg/mL) along with SKN (10 μM), and MgCl2 (10 mM) in 50 mM Tris-HCl buffer (pH 7.4). The metabolic reaction was initiated by adding UPDGA (2 mM) and stopped by adding an equal volume of ice-cold methanol. […] The conditions used for the operation and analysis of the HPLC-DAD and LC-ESI-MS are provided in the Supplementary Materials and Table S3.
(§2) The solvent flow rate was set at 0.2 mL/min, and the column temperature was set at 35 °C. The LTQ instrument was operated in negative ion electron spray mode at an ion spray voltage of −4.2 kV and a source temperature of 275 °C. The sheath gas flow rate was 35 arb, and the aux gas flow rate was 5 arb. The MS conditions used to detect glucuronides via selected ion monitoring scan mode are summarized in Supplementary Materials Table S3.

[2] = target: CYP3A4 (Homo sapiens, UniProt P08684); assay: CYP inhibition in human liver microsomes, testosterone 6β-hydroxylation (TSTHY); conditions: pH 7.4, probe testosterone (6β-hydroxylation, TSTHY)
Chain of CYP3A4 (P08684 whole entry): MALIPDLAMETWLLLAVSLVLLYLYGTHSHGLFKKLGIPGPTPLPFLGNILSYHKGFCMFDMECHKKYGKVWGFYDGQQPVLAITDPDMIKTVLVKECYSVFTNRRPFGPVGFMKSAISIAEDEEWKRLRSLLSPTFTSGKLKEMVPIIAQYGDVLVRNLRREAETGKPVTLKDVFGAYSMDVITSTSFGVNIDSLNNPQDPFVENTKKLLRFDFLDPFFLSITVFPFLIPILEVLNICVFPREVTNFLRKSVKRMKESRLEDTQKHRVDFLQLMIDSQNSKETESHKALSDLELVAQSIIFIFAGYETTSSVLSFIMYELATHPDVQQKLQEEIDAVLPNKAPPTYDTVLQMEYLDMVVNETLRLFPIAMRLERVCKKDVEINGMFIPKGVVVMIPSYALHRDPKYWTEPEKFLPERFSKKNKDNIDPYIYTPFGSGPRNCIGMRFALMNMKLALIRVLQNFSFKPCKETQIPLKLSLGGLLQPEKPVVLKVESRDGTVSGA
Description: The DAD was set at 280 nm.

[3] = target: T2, UGT1A6 (Homo sapiens, UniProt P19224); assay: UGT inhibition in human liver microsomes, 1-naphthol β-D-glucuronidation (NPG); conditions: pH 7.4, probe 1-naphthol (200 μM)
T2 construct: The typical incubation mixture contained human liver microsomes (0.5 mg/mL) along with SKN (10 μM); tissue BD Gentest; host or cells: human liver microsomes
T2 sequence (P19224 27-532): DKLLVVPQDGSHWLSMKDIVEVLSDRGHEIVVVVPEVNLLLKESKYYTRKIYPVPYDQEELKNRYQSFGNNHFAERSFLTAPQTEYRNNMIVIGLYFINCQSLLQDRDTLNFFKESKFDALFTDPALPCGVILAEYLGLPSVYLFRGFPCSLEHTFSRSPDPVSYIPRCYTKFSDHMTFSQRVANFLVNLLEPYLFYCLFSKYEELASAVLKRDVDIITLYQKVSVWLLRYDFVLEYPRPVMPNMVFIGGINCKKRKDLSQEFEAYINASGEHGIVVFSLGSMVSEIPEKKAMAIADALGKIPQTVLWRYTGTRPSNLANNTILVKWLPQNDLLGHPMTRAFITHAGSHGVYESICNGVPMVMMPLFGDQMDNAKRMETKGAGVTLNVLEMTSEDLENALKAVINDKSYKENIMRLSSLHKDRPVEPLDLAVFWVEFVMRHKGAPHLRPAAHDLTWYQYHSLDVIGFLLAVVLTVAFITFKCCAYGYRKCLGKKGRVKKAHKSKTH
Experimental: as §1, §2

[4] = target: T3, UGT1A4 (Homo sapiens, UniProt P22310); assay: UGT inhibition in human liver microsomes, trifluoperazine N-glucuronidation (TFPG); conditions: pH 7.4, probe trifluoperazine (200 μM)
T3 construct: The typical incubation mixture contained human liver microsomes (0.5 mg/mL) along with SKN (10 μM); tissue BD Gentest; host or cells: human liver microsomes
T3 sequence (P22310 29-534): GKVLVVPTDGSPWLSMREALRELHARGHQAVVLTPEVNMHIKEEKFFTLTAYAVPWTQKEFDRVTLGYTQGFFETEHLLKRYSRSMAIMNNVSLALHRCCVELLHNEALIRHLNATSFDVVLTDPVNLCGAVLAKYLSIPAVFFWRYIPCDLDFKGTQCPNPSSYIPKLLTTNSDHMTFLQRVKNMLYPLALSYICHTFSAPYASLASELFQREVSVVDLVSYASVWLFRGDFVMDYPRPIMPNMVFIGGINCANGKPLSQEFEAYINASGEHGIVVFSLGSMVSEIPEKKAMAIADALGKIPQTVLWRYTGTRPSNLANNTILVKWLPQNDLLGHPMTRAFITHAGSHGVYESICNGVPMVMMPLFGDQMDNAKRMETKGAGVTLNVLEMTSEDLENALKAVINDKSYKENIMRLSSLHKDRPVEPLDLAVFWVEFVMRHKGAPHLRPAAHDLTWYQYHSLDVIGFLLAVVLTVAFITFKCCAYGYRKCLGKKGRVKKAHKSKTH
Experimental: as §1, §2

[5] = target: T4, UGT1A9 (Homo sapiens, UniProt O60656); assay: UGT inhibition in human liver microsomes, mycophenolic acid O-glucuronidation (MPAG); conditions: for inhibition at 10 μM: human, pH 7.4, probe mycophenolic acid (200 μM), O-glucuronidation (MPAG), UGT1A9, MPAG
T4 construct: The typical incubation mixture contained human liver microsomes (0.5 mg/mL) along with SKN (10 μM); tissue BD Gentest; host or cells: human liver microsomes
T4 sequence (O60656 26-530): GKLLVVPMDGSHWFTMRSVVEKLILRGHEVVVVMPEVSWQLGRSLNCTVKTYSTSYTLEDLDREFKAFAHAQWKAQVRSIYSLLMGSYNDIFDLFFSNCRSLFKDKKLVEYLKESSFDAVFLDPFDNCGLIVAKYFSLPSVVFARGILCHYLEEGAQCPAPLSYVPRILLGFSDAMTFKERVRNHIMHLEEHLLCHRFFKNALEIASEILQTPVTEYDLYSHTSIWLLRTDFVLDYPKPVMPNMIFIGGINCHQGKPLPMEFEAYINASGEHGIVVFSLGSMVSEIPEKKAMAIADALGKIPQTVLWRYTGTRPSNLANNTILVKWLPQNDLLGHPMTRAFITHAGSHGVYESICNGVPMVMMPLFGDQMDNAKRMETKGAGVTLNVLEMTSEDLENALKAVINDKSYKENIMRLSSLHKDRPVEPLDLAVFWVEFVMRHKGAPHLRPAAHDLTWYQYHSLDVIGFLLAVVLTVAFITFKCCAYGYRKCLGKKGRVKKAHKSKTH
Experimental: as §1, §2

[6] = SKN 10 μM, 15 min pre-incubation, read-out: % Inhibition in Pre-Incubation
[7] = SKN 10 μM, read-out: % Inhibition in Co-Incubation
[8] = inhibitor 10 µM, human liver microsomes 0.5 mg/mL, read-out: Inhibition (%)
[9] = human liver microsomes, 200 µM, inhibitor 10 M [sic], human liver microsomes 0.5 mg/mL, read-out: Inhibition (%)
[10] = human liver microsomes, inhibitor 10 µM, human liver microsomes 0.5 mg/mL, read-out: Inhibition (%)

inhibition at 10 μM [1, 6] [%]	inhibition at 10 μM [1, 7] [%]	inhibition at 60 min, 10 µM ([2]; liver microsomes, 200 μM, SKN 10 μM, 15 min pre-incubation, read-out: % Inhibition in Pre-Incubation) [%]	inhibition at 60 min, 10 µM ([2]; liver microsomes, 200 μM, SKN 10 μM, human liver microsomes, read-out: % Inhibition in Co-Incubation) [%]	inhibition at 10 μM [3, 6] [%]	inhibition at 10 μM [3, 7] [%]	inhibition at 10 μM [4, 6] [%]	inhibition at 10 μM [4, 7] [%]	fold higher inhibition of UGT1A9 in the pre-incubation sample than in the co-incubation sample ([5]; SKN, human liver microsomes) [fold]	inhibition at 10 μM ([5]; human liver microsomes, SKN 10 μM, 15 min pre-incubation, read-out: % Inhibition in Pre-Incubation) [%]	inhibition at 10 μM ([5]; human liver microsomes, SKN 10 μM, human liver microsomes, read-out: % Inhibition in Co-Incubation) [%]	mode of UGT1A9 inhibition ([5]; pre-incubation 15 min, 10-fold dilution)	inhibition at 10 μM [1, 8] [%]	inhibition at 60 min, 10 µM [2, 9] [%]	inhibition at 10 μM [3, 8] [%]	inhibition at 10 μM [4, 8] [%]	inhibition at 10 μM [5, 10] [%]	SMILES
12.6 ± 2.8	15.6 ± 0.6	12.6 ± 2.8	15.6 ± 0.6	10.1 ± 1.2	2 ± 0.6	8.7 ± 1.4	15.3 ± 3.8	1.5	3.5 ± 2.6	-0.6 ± 3.1	irreversible UGT1A9 inhibitor	–	–	–	–	–	COc1cc(O)c2c(c1)OC(c1ccc(O)cc1)CC2=O (racemic) [SKN, (+/−) 7-O-methylnaringenin]
–	–	–	–	–	–	–	–	–	–	–	–	8.2 ± 1.4	3.2 ± 0.7	1.9 ± 2.7	13.7 ± 3.8	2.9 ± 0.8	O=C1C[C@@H](c2ccc(O)c(O)c2)Oc2cc(O)cc(O)c21 [Eriodictyol, 3′-hydroxynaringenin]
–	–	–	–	–	–	–	–	–	–	–	–	6 ± 2.2	39.6 ± 2.2	4.1 ± 3.1	9.6 ± 3.1	2 ± 2.1	O=C1C[C@@H](c2ccc(O)cc2)Oc2cc(O)cc(O)c21 [Naringenin]
